Test results from patent US10280188B2, “Fluorine-containing bisphosphonic acid derivative and use thereof” (NAGASAKI UNIVERSITY, priority 2015, dated 2019).
Like-named read-outs stand apart in the source and are kept apart here.

Legend:
[1] = system: human histiocytic tumor cell line U937; experiment: CD107a expression of Vδ2 positive γδ T cells on compound-treated U937 cells (flow cytometry); assay type: cell-based; conditions: U937 treated 2 hr; Vδ2 positive γδ T cells from normal adult (1)
Procedure: Furthermore, PE-labeled anti-human CD107a monoclonal antibody (5 μL) was added, and the mixture was incubated at 37° C. for 2 hr. Thereto was added FITC-labeled anti-human Vδ2 monoclonal antibody (2 μL), and the mixture was incubated on ice for 20 min. This was washed 3 times with 2% FCS-added PBS, and suspended in 200 μL of 2% FCS-added PBS.

[2] = system: human histiocytic tumor cell line U937; experiment: Specific cytotoxicity of Vδ2 positive γδ T cells on compound-treated U937 (time-resolved fluorescence)
Procedure: A dilution series of 0 μM, 100 μM, 300 μM, 1000 μM was prepared for ZOLF.
A dilution series of 0 μM, 300 μM, 1000 μM, 3000 μM was prepared for ALEF.
A dilution series of 0 μM, 300 μM, 1000 μM, 3000 μM was prepared for PAMF.
A dilution series of 0 μM, 300 μM, 1000 μM, 3000 μM was prepared for IBAF.

[3] = system: Vδ2 positive γδ T cells in peripheral blood mononuclear cells of adult T cell leukemia patients; experiment: Induction of Vδ2 positive γδ T cell proliferation from peripheral blood mononuclear cells of adult T cell leukemia patients (FACS); assay type: cell-based, human; conditions: ZOLF-POM 1 μM, cultured 11 days with IL-2
Procedure: (§1) Heparin blood samples (peripheral blood 10 mL) were collected from adult T cell leukemia patients (1), and diluted with 10 mL of PBS. This was overlaid on 20 mL of Ficoll-Paque and subjected to density gradient centrifugation at 600×g for 30 min at room temperature. The layer directly above Ficoll-Paque was recovered, and washed 3 times with PBS to give peripheral blood mononuclear cells. The cells were suspended in 7 mL of Yssel medium, 1 mL therefrom was stained with PE-labeled anti-human CD3 monoclonal antibody and FITC-labeled anti-human Vδ2 monoclonal antibody, and analyzed by flow cytometer. As a result, as shown in the panel on the left side in FIG. 2, Vδ2 positive γδ T cells accounted for 0.75% of lymphocyte gate. […] As a result, as shown in the panel on the right side in FIG. 2, Vδ2 positive γδ T cells accounted for 91.48% of lymphocyte gate.
as §1, with “(2),” for “(1),”, “3,” for “2,”, “1.58%” for “0.75%”, “96.83%” for “91.48%”
(§2) Heparin blood samples (peripheral blood 10 mL) were collected from adult T cell leukemia patients (3), and diluted with 10 mL of PBS. […] The cells were suspended in 7 mL of Yssel medium, 1 mL therefrom was stained with PE-labeled anti-human CD3 monoclonal antibody and FITC-labeled anti-human Vδ2 monoclonal antibody, and analyzed by flow cytometer. […]

[4] = system: Vδ2 positive γδ T cells in peripheral blood mononuclear cells of lung cancer patients; experiment: Induction of Vδ2 positive γδ T cell proliferation from peripheral blood mononuclear cells of lung cancer patients (FACS); assay type: cell-based, human; conditions: ZOLF-POM 1 μM, cultured 11 days with IL-2
Procedure: as §1, with “collected from lung cancer patients (1),” for “collected from adult T cell leukemia patients (1),”, “with 10 ml of PBS.” for “with 10 mL of PBS.”, “in FIG. 5, Vδ2 positive” for “in FIG. 2, Vδ2 positive”, “accounted for 4.14% of lymphocyte” for “accounted for 0.75% of lymphocyte”, “accounted for 98.59% of lymphocyte” for “accounted for 91.48% of lymphocyte”
as §2, with “lung cancer” for “adult T cell leukemia”, “(2),” for “(3),”, “PBS. This was overlaid on 20 mL of Ficoll-Paque and subjected to density gradient centrifugation at 600×g for 30 min at room temperature.” for “PBS.”

[5] = system: human bladder cancer cell line EJ-1; experiment: Specific cytotoxicity of Vδ2 positive γδ T cells on compound-treated EJ-1 (time-resolved fluorescence); conditions: γδ T cells from normal adult (1), E/T 0:1-40:1
Procedure: Human bladder cancer cell line EJ-1 cells were suspended in RPMI1640 medium at a cell concentration of 1×10^6/mL, and dispensed by 1 mL to a 15 mL conical tube. This was centrifuged at 600×g for 5 min, and the supernatant was removed. […] The compound solutions of the dilution series were added by 1 mL to the cell pellets after removal of the supernatant and incubated at 37° C. for 1 hr 45 min. Thereto was added 10 mM lanthanoid metal chelating agent by 2.5 μL, and the mixture was further incubated for 15 min. These conical tubes were centrifuged at 600×g for 5 min, and the cell pellets were washed 3 times with RPMI1640 medium. Then, the cell pellets were suspended in 5 mL of RPMI1640 medium, 2 mL therefrom was placed in a different conical tube, and 6 mL of RPMI1640 medium was further added. The cell suspension was seeded by 100 μL in a 96 well round bottom plate. Vδ2 positive γδ T cells derived from normal adult (1) were reacted at an effector cell/target cell ratio of 0:1, 5:1, 10:1, 20:1, 40:1, and incubated for 40 min at 37° C. The plate was centrifuged at 600×g for 2 min, 25 μL of culture supernatant was taken, and diluted with 200 μL of europium-added acetate buffer. The mixture was taken by 200 μL, and time-resolved fluorescence was measured.

[6] = system: adult T cell leukemia cell line HCT-4; experiment: Specific cytotoxicity of Vδ2 positive γδ T cells on compound-treated HCT-4 (time-resolved fluorescence); conditions: γδ T cells from adult T cell leukemia patients (4), E/T 1.25:1-80:1, 1 and 10 μM tested
Procedure: Adult T cell leukemia cell line HCT-4 cells were suspended in RPMI1640 medium at a cell concentration of 1×10^6/mL, and dispensed by 1 mL to a 15 mL conical tube. This was centrifuged at 600×g for 5 min, and the supernatant was removed. […] Thereto was added 10 mM lanthanoid metal chelating agent by 2.5 μL, and the mixture was further incubated for 15 min. These conical tubes were centrifuged at 600×g for 5 min, and the cell pellets were washed 3 times with RPMI1640 medium. Then, the cell pellets were suspended in 5 mL of RPMI1640 medium, 2 mL therefrom was placed in a different conical tube, and 6 mL of RPMI1640 medium was further added. The cell suspension was seeded by 100 μL in a 96 well round bottom plate. […] The plate was centrifuged at 600×g for 2 min, 25 μL of culture supernatant was taken, and diluted with 200 μL of europium-added acetate buffer. The mixture was taken by 200 μL, and time-resolved fluorescence was measured.

[7] = U937, γδ T cells from normal adult (1), E/T 0:1-40:1

NCCCC(F)(P(=O)(O)O)P(=O)(O)O [ALEF, 4-amino-1-fluoro-butylidene-1,1-bisphosphonic acid]
compound concentration that induces maximum CD107a expression [1]: several hundred
concentration at which sensitivity to cytotoxicity activity of Vδ2 positive γδ T cells is promoted [2, 7]: at least 300 μM

CCCCCN(C)CCC(F)(P(=O)(O)O)P(=O)(O)O [IBAF, 1-fluoro-3-(methyl(pentyl)amino)propylidene-1,1-bisphosphonic acid]
concentration at which sensitivity to cytotoxicity activity of Vδ2 positive γδ T cells is promoted [2]: at least 300 μM

NCCC(F)(P(=O)(O)O)P(=O)(O)O [PAMF, 3-amino-1-fluoro-propylidene-1,1-bisphosphonic acid]
compound concentration that induces maximum CD107a expression [1]: several hundred
concentration at which sensitivity to cytotoxicity activity of Vδ2 positive γδ T cells is promoted [2, 7]: at least 300 μM

O=P(O)(O)C(F)(Cn1ccnc1)P(=O)(O)O [ZOLF, 1-fluoro-(2-imidazoyl-1-ethylidene)-1,1-bisphosphonic acid]
compound concentration that induces maximum CD107a expression [1]: several hundred

CC(C)(C)C(=O)OCOP(=O)(OCOC(=O)C(C)(C)C)C(F)(Cn1ccnc1)P(=O)(OCOC(=O)C(C)(C)C)OCOC(=O)C(C)(C)C [ZOLF-POM, tetrakispivaloyloxymethyl-1-fluoro-2-(1H-imidazoyl-1-ethylidene)-1,1-bisphosphonate]
Vδ2 positive γδ T cells, proportion of lymphocyte gate ([3]; adult T cell leukemia patient (1), 0.75% before culture): 91.48%
Vδ2 positive γδ T cells, proportion of lymphocyte gate ([3]; adult T cell leukemia patient (2), 1.58% before culture): 96.83%
Vδ2 positive γδ T cells, proportion of lymphocyte gate ([3]; adult T cell leukemia patient (3), 0.49% before culture): 98.29%
Vδ2 positive γδ T cells, proportion of lymphocyte gate ([4]; lung cancer patient (1), 4.14% before culture): 98.59%
Vδ2 positive γδ T cells, proportion of lymphocyte gate ([4]; lung cancer patient (2), 1.95% before culture): 95.72%
compound concentration that induces maximum CD107a expression [1]: about 100 nM
concentration at which sensitivity to cytotoxicity activity of Vδ2 positive γδ T cells is promoted [5]: at least 1.25 μM
concentration at which sensitivity to cytotoxicity activity of Vδ2 positive γδ T cells is promoted [6]: at least 1 μM
